The IC50 is the concentration that inhibits the measured activity by half. The low end stands for greater potency in that assay, the high end for weaker potency in that assay. By IC90 is commonly meant the concentration at which the effect reaches the 90% level. Low readings indicate an effect from little substance, high ones a need for much substance.

In brackets after ≈: the same amount, converted by molar mass.

The text below walks through data of US6521661B1, “Cyclic peroxides as novel antifungal agents” (Harbor Branch Oceanographic Institution, Inc., priority 2000, dated 2003).

In data set [1] the test system is cardiac sarcoplasmic reticulum. The settings on record: cited from earlier work.
The subject of data set [2] is Candida albicans. Nature of the data set: Antifungal microtiter broth assay. The format is cell-based. The settings on record: 24 hours, 37° C., RPMI medium, scored visually. As to the method:
Preparation of Stocks Cultures of Candida albicans. Freeze-dried C. albicans yeast stocks (ATCC 90028) were each resuspended in 1 mL sterile distilled, de-ionized water. Slants were made with five mL of MPG agar (2% (w/v) malt extract, 2% (w/v) glucose, 0.1% (w/v) bacto-peptone, 1.5% (w/v) agar) in 16×125 mm disposable glass culture tubes, inoculated with approximately […] of the above cell suspension, incubated at 25° C. for 7 days and then frozen at −80° C. To prepare glycerol stocks, a slant was thawed and the yeast cells were resuspended in 5 mL sterile distilled, de-ionized water. This 5 mL cell suspension was used to inoculate 50 mL of Sabouraud Dextrose Broth (3% (w/v) [Gibco]) in a 250 mL Ehrlenmeyer flask and was incubated 18-24 hours at 37° C., 180 rpm. Fifty milliliters of Sabouraud Dextrose Broth in a 250 mL Ehrlenmeyer flask were inoculated with 1×10^7 cells per mL of the previous culture and grown under the same conditions. After 18-24 hours, sufficient glycerol was added to this culture to make a 10% (v/v) solution (final concentration). This solution was aliquoted in 1 mL portions, frozen on dry ice, and stored at −50° C. A thawed glycerol stock was used to inoculate 50 mL Sabouraud's Dextrose Broth in a 250 mL Ehrlenmeyer flask and grown for 18-24 hours, at 37° C., 180 rpm. This culture was used to inoculate 96-well microtiter plates [Nunc] at 2×10^3 cells per 200 μL per well in liquid RPMI medium (RPMI-1640 [Gibco], 0.165 M MOPS, pH 7.0).
(§1) Each well of a 96-well microtiter plate contained 200 μL of inoculum of C. albicans or A. fumigatus and 0.1 to 125 μg/mL of marine extract in DMSO. Controls for each assay were 0.025 to 16 μg/mL of amphotericin B, and 2 μL of DMSO. Culture plates were incubated for 24 or 48 hours (for C. albicans and A. fumigatus respectively) at 37° C., 120 rpm and scored visually using a light microscope. […] Percent inhibition was estimated. The Minimum Inhibitory Concentration was determined. Samples were considered active if they inhibited 50% or more growth.

Data set [3] has as its system Aspergillus fumigatus. Nature of the data set: Antifungal microtiter broth assay. The format is cell-based. The settings on record: 48 hours, 37° C., RPMI medium, scored visually. As to the method: Preparation of Stock Cultures of Aspergillus fumigatus. Freeze-dried A. fumigatus stocks (ATCC 16424) were resuspended in 1 mL sterile distilled, de-ionized water. Slants were made with five mL of MPG agar (2% (w/v) malt extract, 2% (w/v) glucose, 0.1% (w/v) bacto-peptone, 1.5% (w/v) agar) in 16×125 mm disposable glass culture tubes, inoculated with approximately 50 μL of the above cell suspension, incubated at 25° C. for 7 days and then frozen at −80° C. To prepare glycerol stocks, a slant was thawed and conidia were resuspended in 5 mL sterile distilled, de-ionized water. Two hundred mL of MPG agar (2% (w/v) malt extract, 2% (w/v) glucose, 0.1% (w/v) bacto-peptone, 1.5% (w/v) agar) in a 1000 mL Ehrlenmeyer flask were inoculated with this 5 mL cell suspension, incubated 5-7 days at 37° C., and then frozen at −20° C. This flask was thawed and conidia were resuspended in 20 mL of sterile distilled, de-ionized water. Sufficient glycerol was added to this 20 mL suspension to make a 10% (v/v) solution (final concentration). This solution was aliquoted in 1 mL portions, frozen on dry ice, and stored at −50° C. A thawed glycerol stock was used to inoculate 96-well microtiter plates at 2×10^4 conidia per 200 μL per well in liquid RPMI medium (RPMI-1640 [Gibco], 0.165 M MOPS, pH 7.0).
as §1

Data set [4] concerns murine leukemia (P388) cells. Conditions: cited from earlier work.
Data set [5] concerns S. cerevisiae. The settings on record: at 100 mg/disk; cited from earlier work.
Data set [6] has as its system P. atrovenetum. Conditions: at 100 mg/disk; cited from earlier work.
Data set [7] deals with T1, cdc25a (Homo sapiens, UniProt P30304).
T1 sequence (P30304 1-524): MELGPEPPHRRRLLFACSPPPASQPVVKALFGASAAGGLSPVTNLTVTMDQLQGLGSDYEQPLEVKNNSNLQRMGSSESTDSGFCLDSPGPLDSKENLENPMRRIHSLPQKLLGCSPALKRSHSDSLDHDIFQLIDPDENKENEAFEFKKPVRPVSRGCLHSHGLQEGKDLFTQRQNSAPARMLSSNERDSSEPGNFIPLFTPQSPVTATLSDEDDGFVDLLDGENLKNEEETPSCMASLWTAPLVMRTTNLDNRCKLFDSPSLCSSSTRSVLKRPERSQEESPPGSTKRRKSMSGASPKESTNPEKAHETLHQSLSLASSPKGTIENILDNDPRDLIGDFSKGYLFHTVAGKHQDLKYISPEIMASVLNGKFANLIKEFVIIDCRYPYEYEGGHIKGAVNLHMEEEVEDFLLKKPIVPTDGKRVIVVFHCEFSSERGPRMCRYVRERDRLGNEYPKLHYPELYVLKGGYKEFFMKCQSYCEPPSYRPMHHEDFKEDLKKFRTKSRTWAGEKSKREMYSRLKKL
Conditions: cited from earlier work.

Data set [8] concerns P388 murine leukemia. The settings on record: cited from earlier work.

Take `CC/C=C/C(CC)CCC[C@@]1(CC)C[C@H](CC)[C@H](CC(=O)OC)OO1` (stereo partly shown) [Plakortide F]: the “Ca2+ uptake by the cardiac sarcoplasmic reticulum” value (from here on “Ca2+ uptake”) in data set [1] is listed as “significantly enhanced”.
As for `CC/C=C/C=C/C=C/CCCCCCCC[C@]1(C)C[C@@](C)(CC(=O)O)OO1` [Peroxyacid 2], in data set [2], half-maximal inhibition (IC50) required 25 µg/mL (≈ 66 µM) and the concentration for an effect of 90% (IC90) turned out to be 25 µg/mL (≈ 66 µM). Also, in data set [3], the IC50 was found to be 25 µg/mL (≈ 66 µM) and the IC90 stood at 25 µg/mL (≈ 66 µM).
Consider `COC(=O)C[C@@]1(C)C[C@](C)(CC(C)CCCCCCc2ccccc2)OO1` (stereo partly shown) [Epiplakinic acid E methyl ester], for which the “Cytotoxicity against P388 cells” value in data set [4] is on record as “Cytotoxicity”.
Consider `CC(/C=C/c1ccccc1)C/C=C/C(C)C[C@]1(C)C[C@H](C)[C@@H](CC(=O)O)OO1` (stereo partly shown) [Plakinic acid B], for which the “Antifungal activity vs. S. cerevisiae (zone)” value in data set [5] is given as 20 mm. Besides, the “Antifungal activity vs. P. atrovenetum (zone)” value in data set [6] is 18 mm.
In the case of `CC(/C=C/c1ccccc1)C/C=C/C(C)CC1(C)CC(C)(CC(=O)O)OO1` (stereo not shown) [Plakinic acid A], the “Antifungal activity vs. S. cerevisiae (zone)” value in data set [5] is recorded as 24 mm. Moreover, the “Antifungal activity vs. P. atrovenetum (zone)” value in data set [6] is listed as 25 mm.
In data set [2], `CC/C=C/C(CC)C/C=C/[C@@]1(CC)C[C@H](CC)[C@@H](CC(=O)O)OO1` (stereo partly shown) [Peroxyacid 6] came in with an IC50 of 2 µg/mL (≈ 5.91 µM) and an IC90 of 3.9 µg/mL (≈ 11.5 µM). In data set [3], this molecule displayed a concentration for half-maximal inhibition (IC50) of 5.6 µg/mL (≈ 16.5 µM) and a concentration for an effect of 90% (IC90) of 5.6 µg/mL (≈ 16.5 µM).
In data set [2], `CC(CCCCCC/C=C/C=C/c1ccccc1)C[C@]1(C)C[C@@](C)(CC(=O)O)OO1` (stereo partly shown) [Peroxyacid 3] showed an IC50 of 31.2 µg/mL (≈ 75.3 µM) and an IC90 of 62.5 µg/mL (≈ 151 µM). In data set [3], this molecule came in with an IC50 of 62.5 µg/mL (≈ 151 µM) and an IC90 of 62.5 µg/mL (≈ 151 µM).
As for Plakortide H, the “Ca2+ uptake” value in data set [1] is “significantly enhanced”.
On to `C[C@]1(CCCCCCCCCCc2ccccc2)C[C@](C)(CC(=O)O)OO1` [Peroxyacid 5, Epiplakinic Acid h], for which, in data set [2], the IC50 came out at 0.25 µg/mL (≈ 0.664 µM) and the 90% effect level (IC90) was put at 0.25 µg/mL (≈ 0.664 µM). In data set [3], half-maximal inhibition (IC50) was put at 0.5 µg/mL (≈ 1.33 µM) and it took 0.5 µg/mL (≈ 1.33 µM) to reach the 90% level (IC90). Further, in data set [7], the “Inhibition of the enzyme cdc25a” value is “inhibitor”.
`CC/C=C/C(CC)CC(C)CC1(CC)C[C@H](CC)[C@H](CC(=O)O)OO1` (stereo partly shown): the “IC50 against P388 murine leukemia” value in data set [8] is 500 µg/mL (≈ 1410 µM).
Plakortide G: the “Ca2+ uptake” value in data set [1] is reported as “significantly enhanced”.
In data set [2], `CC/C=C/C=C/C=C/CCCCCCCC[C@]1(C)C[C@](C)(CC(=O)O)OO1` [Peroxyacid 1] returned an IC50 of 25 µg/mL (≈ 66 µM) and an IC90 of 25 µg/mL (≈ 66 µM). In data set [3], this molecule displayed an IC50 of 25 µg/mL (≈ 66 µM) and an IC90 of 25 µg/mL (≈ 66 µM).
In data set [2], `CC(CCCCCC/C=C/C=C/c1ccccc1)C[C@]1(C)C[C@](C)(CC(=O)O)OO1` (stereo partly shown) [Peroxyacid 4] had an IC50 of 31.2 µg/mL (≈ 75.3 µM) and an IC90 of 31.2 µg/mL (≈ 75.3 µM). Moreover, in data set [3], half-maximal inhibition (IC50) was put at 31.2 µg/mL (≈ 75.3 µM) and the 90% effect level (IC90) was put at 31.2 µg/mL (≈ 75.3 µM).
